This is an account of results in patent publication US7045495B2 (Sloan-Kettering Institute for Cancer Research, priority 1996, dated 2006).

One assay concerns the target creatinine phosphokinase. The following applies: read-out: concentration for 50% inhibition of creatinine phosphokinase; safingol; cited from earlier work.
The subject of a further assay is 16C mammary carcinoma. Particulars: safingol 5 to 20 mg/kg; cited from earlier work.
For assay [1], the system named is MKN-74. Nature of the assay: cytotoxicity, Alamar Blue Assay. It counts as cell-based, human. The following applies: 24 hours; RO 32-2241 10^-6 M, Mitomycin-C 5 μg/ml. From the text:
It has been shown that PKC activity can act as an antagonist to apoptosis, whereas PKC inhibition can promote apoptosis. These observations imply that one function of PKC stimulated processes is to inhibit the induction of programmed cell death. Thus, anti-tumor effects of chemotherapeutic agents may be potentiated by PKC inhibitors that contribute to the induction of apoptosis after drug-induced damage. In order to test this hypothesis we have used the human gastric cancer cell MKN-74 to determine whether RO 32-2241 would enhance the cytotoxic effect of the chemotherapeutic agent Mitomycin-C (MMC). Cytotoxicity was measured and quantified using the Alamar Blue Assay. Cells were treated according to one of four conditions: (i) no drug (control) for 24 hours, (ii) RO 32-2241 alone at 10–6 M, (iii) Mitomycin-C alone at 5 μg/ml for 24 hours, (iv) the combination of RO 32-2241 (10^-6 M) and Mitomycin-C (5 μg/ml) for 24 hours. The results are summarized below for percent survival: […]
Background: Resazurin is reduced to fluorescent resorufin, in cell work by metabolically active cells.

Assay [2] relates to MKN-74. As to the kind of experiment: cell viability, trypan blue dye exclusion. The format is cell-based, human. The following applies: 24 hours, single drug or concomitant; bryostatin 1 μM, Mitomycin-C 1 μg/ml, Taxol 50 μM, Cisplatin 50 μM. The text has this: Recently our laboratory has studied the effects of combining bryostatin with chemotherapy both in vitro and in vivo against solid tumors. For our in vitro studies, we have been using the human gastric cancer cell line MKN-74. Cytotoxicity has been examined both by cell viability assays using trypan blue dye exclusion assays and by the induction of apoptosis using quantitative fluorescent microscopy.

Take `CCCCCCCCCCCCCCC[C@H](O)[C@@H](N)CO` [safingol, L-threo-dihydrosphingosine]: at creatinine phosphokinase, the IC50 is greater than 218 µM. The “effect on tumor cell growth, single agent” value with 16C mammary carcinoma was “no effect on inhibiting tumor cell growth”.
Regarding `CO[C@@]12[C@H](COC(N)=O)C3=C(C(=O)C(C)=C(N)C3=O)N1C[C@@H]1N[C@@H]12` [MMC, Mitomycin-C], in the assay on MKN-74 [1], the Percent survival is on record as 87%. In addition, the “% of Cells Alive” value in the assay with MKN-74 [2] was found to be 76%.
